In assay [1] the test system is Candida albicans. Briefly: Antifungal activity against Candida albicans 103 assessed as inhibition of fungal growth incubated for 48 to 72 hrs by microplate reader analysis. It counts as functional, organism-based. The settings on record: time 48-72 hrs.
Assay [2] concerns Cryptococcus neoformans. Briefly: Antifungal activity against Cryptococcus neoformans 011409 assessed as inhibition of fungal growth incubated for 48 to 72 hrs by microplate reader analysis. It counts as functional. The settings on record: time 48-72 hrs.
For assay [3], the system named is [Candida] auris. Put plainly: Antifungal activity against Candida auris 15448 assessed as inhibition of fungal growth incubated for 48 to 72 hrs by microplate reader analysis. It is filed as functional, organism-based. The settings on record: Candidozyma auris, time 48-72 hrs.
The test system of assay [4] is Cryptococcus neoformans. Put plainly: Antifungal activity against Cryptococcus neoformans HN-68 assessed as inhibition of fungal growth incubated for 48 to 72 hrs by microplate reader analysis. It counts as functional. The following applies: time 48-72 hrs.
Assay [5] concerns Candida albicans. Briefly: Antifungal activity against Candida albicans SC5314 assessed as inhibition of fungal growth incubated for 48 to 72 hrs by microplate reader analysis. It counts as functional, organism-based. The following applies: time 48-72 hrs.
Assay [6] has as its system Nakaseomyces glabratus. Put plainly: Antifungal activity against Candida glabrata 0161 assessed as inhibition of fungal growth incubated for 48 to 72 hrs by microplate reader analysis. It is filed as functional. The settings on record: time 48-72 hrs.
For assay [7], the system named is [Candida] auris. Briefly: Antifungal activity against Candida auris 0029 assessed as inhibition of fungal growth incubated for 48 to 72 hrs by microplate reader analysis. It is filed as functional, organism-based. The following applies: Candidozyma auris, time 48-72 hrs.
In assay [8] the test system is Cryptococcus gattii. Briefly: Antifungal activity against Cryptococcus gattii 01063P assessed as inhibition of fungal growth incubated for 48 to 72 hrs by microplate reader analysis. It counts as functional. The following applies: time 48-72 hrs.
In assay [9] the test system is Candida albicans. Briefly: Antifungal activity against Candida albicans 9296 assessed as inhibition of fungal growth incubated for 48 to 72 hrs by microplate reader analysis. It counts as functional, organism-based. The following applies: time 48-72 hrs.
Assay [10] has as its system Nakaseomyces glabratus. Briefly: Antifungal activity against Candida glabrata 9256 assessed as inhibition of fungal growth incubated for 48 to 72 hrs by microplate reader analysis. It is filed as functional. The following applies: time 48-72 hrs.
Assay [11] relates to [Candida] auris. Briefly: Antifungal activity against Candida auris 0030 assessed as inhibition of fungal growth incubated for 48 to 72 hrs by microplate reader analysis. It counts as functional, organism-based. The following applies: Candidozyma auris, time 48-72 hrs.
Assay [12] relates to Nakaseomyces glabratus. Put plainly: Antifungal activity against Candida glabrata 8535 assessed as inhibition of fungal growth incubated for 48 to 72 hrs by microplate reader analysis. It counts as functional. The following applies: time 48-72 hrs.
Assay [13] deals with Cryptococcus neoformans. Briefly: Antifungal activity against Cryptococcus neoformans H99 assessed as inhibition of fungal growth incubated for 48 to 72 hrs by microplate reader analysis. The settings on record: time 48-72 hrs. It is filed as functional.

The source made the active and inactive calls. The calls are words filed in the database; no cut-off is given here.

Take `CCCCc1ccc(NC(=S)n2[nH]c(N)cc2=O)cc1`: the outcome in assay [1], in assay [2], in assay [3], in assay [4], in assay [5] and in [6] was Active. Further, the outcome in assay [7], in assay [8], in assay [9], in assay [10], in assay [11] and in [12] was Active. Further, in assay [13], the outcome was Active.
For the compound `S=C(Nc1ccc(C2CCCCC2)cc1)Nc1cc[nH]n1`, the result in assay [1], in assay [2], in assay [3], in [4], in assay [5] and in assay [6] was inactive. Besides, the outcome in [7], in assay [8], in assay [9], in assay [10], in assay [11] and in [12] was inactive. Also, in assay [13], the outcome was inactive.
For `CC(=O)c1ccc(NC(=S)n2[nH]c(N)cc2=O)cc1`, the Activity result in assay [1], in [2], in assay [3], in [4], in [5] and in [7] was “Not active; Compound Demonstrated Reduced Activity Compared To Lead Compound 1” in each case. Further, the Activity entry in assay [8], in assay [9], in assay [11] and in assay [13] was “Not active; Compound Demonstrated Reduced Activity Compared To Lead Compound 1” each time. The outcome in [6], in assay [10] and in [12] was Active.
Take `Nc1cc(=O)n(C(=S)Nc2ccc(C(=O)c3ccccc3)cc2)[nH]1`: the result in assay [1], in assay [3], in assay [5], in assay [7], in assay [9] and in assay [11] was inactive. Moreover, the result in [2], in assay [4], in assay [6], in [8], in [10] and in [12] was Active. The result in assay [13] was Active.
For the compound `CS(=O)(=O)c1ccc(NC(=S)n2[nH]c(N)cc2=O)cc1`, the Activity entry in [1], in [2], in assay [3], in [4], in assay [5] and in assay [7] was “Not active; Compound Demonstrated Reduced Activity Compared To Lead Compound 1” throughout. Besides, the Activity result in assay [8], in [9], in assay [11] and in assay [13] was “Not active; Compound Demonstrated Reduced Activity Compared To Lead Compound 1” in each case. Also, the outcome in assay [6], in assay [10] and in assay [12] was Active.
On to `CC(=O)c1ccc(NC(=O)n2[nH]c(N)cc2=O)cc1`, for which the outcome in assay [1], in assay [2], in assay [3], in assay [4], in assay [5] and in assay [6] was inactive. Moreover, the result in [7], in [8], in assay [9], in assay [10], in assay [11] and in [12] was inactive. Also, the result in assay [13] was inactive.
With `CCc1ccc(NC(=S)n2[nH]c(N)cc2=O)cc1`, the result in [1], in assay [2], in [3], in assay [4], in [5] and in [6] was Active. Also, the outcome in [7], in assay [8], in assay [9], in assay [10], in assay [11] and in [12] was Active. Besides, in assay [13], the result was Active.
For the compound `CCc1ccc(NC(=O)n2[nH]c(N)cc2=O)cc1`, the result in [1], in assay [2], in assay [3], in assay [4], in assay [5] and in assay [6] was inactive. In addition, the result in [7], in assay [8], in assay [9], in assay [10], in [11] and in [12] was inactive. The outcome in assay [13] was inactive.
With `CCCCCCCCc1ccc(NC(=S)n2[nH]c(N)cc2=O)cc1`, the result in [1], in assay [2], in assay [3], in [4], in assay [5] and in assay [6] was Active. The result in assay [7], in assay [8], in assay [9], in assay [10], in [11] and in [12] was Active. Besides, the result in [13] was Active.
Take `Nc1cc(=O)n(C(=S)Nc2ccc(OC3CCCCC3)cc2)[nH]1`: the outcome in assay [1], in [2], in assay [3], in [4], in assay [5] and in [6] was Active. Further, the outcome in assay [7], in assay [8], in assay [9], in [10], in assay [11] and in [12] was Active. For the same compound, the result in assay [13] was Active.
Turning to `Nc1ccn(C(=S)Nc2ccc(C3CCCCC3)cc2)n1`, the result in assay [1], in [2], in assay [3], in [4], in assay [5] and in [6] was inactive. In addition, the outcome in assay [7], in assay [8], in assay [9], in [10], in assay [11] and in assay [12] was inactive. Moreover, in [13], the outcome was inactive.
As for `CCCCCCc1ccc(NC(=S)n2[nH]c(N)cc2=O)cc1`, the outcome in assay [1], in [2], in assay [3], in assay [4], in assay [5] and in [6] was Active. Besides, the result in [7], in assay [8], in assay [9], in assay [10], in assay [11] and in [12] was Active. Moreover, in [13], the outcome was Active.

Source of the values: ChEMBL document CHEMBL6109146, “Discovery of New Pyrazolone Carbothioamide Derivatives as Potent Antifungal Agents for the Treatment of Candidiasis and Cryptococcosis” (J Med Chem, 2025).
